Patent US8173158B2, “Methods of treating gastrointestinal disorders independent of the intake of food” (Takeda Pharmaceuticals U.S.A., Inc., priority 2007, dated 2012)

Experiment: Effect and timing of food on pharmacokinetics of TAK-390 after a single oral dose of TAK-390MR 90 mg (phase 1, 4-way crossover)
Type: in vivo, human
Conditions: oral 90 mg dose with a high fat meal
Protocol: The purpose of this study was to evaluate the effect of food on the pharmacokinetics (PK) and pharmacodynamics (PD) of TAK-390 after a single oral dose of TAK-390 MR 90 mg, made as described in Example 1. This study was a phase 1, open-label, randomized, single-dose, 4-way crossover study conducted at a single center. Healthy adult subjects were randomized on Day 1 of Period 1 to 1 of 4 sequence groups that determined the order in which patients received the 4 different dosing regimens (See, Table 4, below). […] There was a minimum washout interval of at least 5 days between the last dose in a period and the first dose in the subsequent period. […] PK parameters for TAK-390 were estimated using standard noncompartmental methods and include: tlag=time delay between drug administration and first observed concentration above the lower limit of quantitation; tmax=time to reach the observed maximum plasma concentration; Cmax=observed maximum plasma concentration; and AUC=area under the plasma concentration vs time curve from time zero the last quantifiable concentration (AUCt) and from time zero to infinity (AUC∞).

**Q.** What does the source list for `Cc1c(OCC(F)(F)F)ccnc1C[S@@+]([O-])c1nc2ccccc2[nH]1` [dexlansoprazole]?
**A.** increase in AUC∞: approximately 37%; increase in Cmax: approximately 37%
